# The source made the active and inactive calls. The rule behind the calls is not given here.
# What was measured:
# A549 = assay: Antiproliferative activity against human A549 cells assessed as reduction in cell viability measured after 48 hrs by MTT assay; format: functional, cell-based
# [1] = Induction of apoptosis in human RKOP3 cells assessed as late apoptotic cells at 3.3 uM measured after 48 hrs by annexinV-FITC/propidium iodide staining based flow cytometry analysis (reference value: 0.01 %); format: functional
# HEK293 = assay: Cytotoxicity against human HEK293 cells assessed as reduction in cell viability measured after 48 hrs by MTT assay; format: cell-based; settings: Homo sapiens, HEK293, 48 h; read-out: IC50
# [2] = Induction of apoptosis in human RKOP3 cells assessed as early apoptotic cells at 1.5 uM measured after 48 hrs by annexinV-FITC/propidium iodide staining based flow cytometry analysis (reference value: 1.8 %); format: functional
# [3] = Induction of apoptosis in human RKOP3 cells assessed as necrotic cells at 5 uM measured after 48 hrs by annexinV-FITC/propidium iodide staining based flow cytometry analysis (reference value: 0 %); format: functional
# [4] = Cell cycle arrest in human RKOP3 cells assessed as accumulation at G0/G1 phase at 3.3 uM measured after 24 hrs by propidium iodide staining based flow cytometry analysis (reference value: 59.59 %); format: functional
# [5] = Induction of apoptosis in human RKOP3 cells assessed as live cells at 1.5 uM measured after 48 hrs by annexinV-FITC/propidium iodide staining based flow cytometry analysis (reference value: 98.19 %); format: functional
# [6] = Induction of apoptosis in human RKOP3 cells assessed as necrotic cells at 3.3 uM measured after 48 hrs by annexinV-FITC/propidium iodide staining based flow cytometry analysis (reference value: 0 %); format: functional
# [7] = (§1) Antiproliferative activity against human RKOP3 cells assessed as reduction in cell viability measured after 48 hrs by MTT assay; format: functional, cell-based
# Homo sapiens = species: Homo sapiens; assay: as §1; format: functional, cell-based
# [8] = Induction of apoptosis in human RKOP3 cells assessed as live cells at 5 uM measured after 48 hrs by annexinV-FITC/propidium iodide staining based flow cytometry analysis (reference value: 98.19 %); format: functional
# [9] = Cell cycle arrest in human RKOP3 cells assessed as accumulation at G0/G1 phase at 1.5 uM measured after 24 hrs by propidium iodide staining based flow cytometry analysis (reference value: 59.59 %); format: functional
# [10] = Induction of apoptosis in human RKOP3 cells assessed as necrotic cells at 1.5 uM measured after 48 hrs by annexinV-FITC/propidium iodide staining based flow cytometry analysis (reference value: 0 %); format: functional
# [11] = Induction of apoptosis in human RKOP3 cells assessed as early apoptotic cells at 3.3 uM measured after 48 hrs by annexinV-FITC/propidium iodide staining based flow cytometry analysis (reference value: 1.8 %); format: functional
# HeLa = assay: Antiproliferative activity against human HeLa cells assessed as reduction in cell viability measured after 48 hrs by MTT assay; format: functional, cell-based
# [12] = Induction of apoptosis in human RKOP3 cells assessed as late apoptotic cells at 5 uM measured after 48 hrs by annexinV-FITC/propidium iodide staining based flow cytometry analysis (reference value: 0.01 %); format: functional
# [13] = Induction of apoptosis in human RKOP3 cells assessed as late apoptotic cells at 1.5 uM measured after 48 hrs by annexinV-FITC/propidium iodide staining based flow cytometry analysis (reference value: 0.01 %); format: functional
# Tubulin (Homo sapiens) [14] = biological target: T1, Tubulin (Homo sapiens) (UniProt P68371+Q9H4B7+P0DPH7+P68366+Q13509+Q71U36+P04350+Q3ZCM7+P07437+P68363+Q9BQE3+Q6PEY2+Q13885+Q9BVA1+Q9BUF5); assay: Inhibition of tubulin polymerization in human HeLa cells assessed as disruption of microtubule network at 10 uM measured after 24 hrs by immunofluorescence assay; format: cell-based
# [15] = Induction of apoptosis in human RKOP3 cells assessed as early apoptotic cells at 5 uM measured after 48 hrs by annexinV-FITC/propidium iodide staining based flow cytometry analysis (reference value: 1.8 %); format: functional
# [16] = Induction of apoptosis in human RKOP3 cells assessed as live cells at 3.3 uM measured after 48 hrs by annexinV-FITC/propidium iodide staining based flow cytometry analysis (reference value: 98.19 %); format: functional
# DU-145 = assay: Antiproliferative activity against human DU145 cells assessed as reduction in cell viability measured after 48 hrs by MTT assay; format: functional, cell-based
# Tubulin (Homo sapiens) [17] = biological target: T1, Tubulin (Homo sapiens); assay: Inhibition of tubulin […] in human DU145 cells assessed as increase in soluble fraction of tubulin at […] measured after 24 hrs by Western blot analysis; format: cell-based; settings: DU-145
# [18] = Cell cycle arrest in human RKOP3 cells assessed as accumulation at G0/G1 phase at 5 uM measured after 24 hrs by propidium iodide staining based flow cytometry analysis (reference value: 59.59 %); format: functional
smiles,measurement,setting,value
CCCCCCCCCC(=O)O/N=C1\C=C2C[C@H](C)[C@@]3(C)Cc4cc(OC)c(OC)c(OC)c4C23C(OC)=C1OC (stereo partly specified),inhibition,A549,Dose-dependent effect
same,IC50,"A549; A549, 48 h",12.3 µM
same,Activity,[1],0.29%
same,IC50,HEK293,84.5 µM
same,Activity,[2],7.02%
same,Activity,[3],0.04%
same,Activity,[4],55.32%
same,Activity,[5],92.41%
same,Activity,[6],0.02%
same,IC50,[7],3.35 µM
same,inhibition,Homo sapiens,Dose-dependent effect
same,Activity,[8],76.06%
same,Activity,[9],60.68%
same,Activity,[10],0%
same,Activity,[11],9.05%
same,IC50,HeLa,60.2 µM
same,inhibition,HeLa,Dose-dependent effect
same,Activity,[12],2.3%
same,Activity,[13],0.57%
same,inhibition,Tubulin (Homo sapiens) [14],Active
same,Activity,[15],21.6%
same,Activity,[16],90.64%
same,inhibition,DU-145,Dose-dependent effect
same,IC50,"DU-145; DU-145, 48 h",10.5 µM
same,inhibition,Tubulin (Homo sapiens) [17],Active
same,Activity,[18],50.56%
